Data on five compounds can be found in paper PMC11221189, “Gut microbiota DPP4-like enzymes are increased in type-2 diabetes and contribute to incretin inactivation” (Genome Biology, 2024).

Assay [1] addresses pmDPP4Δ23 (Parabacteroides merdae, UniProt A0AA37KD06). The class given is biochemical. The following applies: for Effect on pmDPP4Δ23 hydrolytic activity (in words): gpPNA hydrolysis; for EC50 pmDPP4: gpPNA substrate, non-linear fit, sitagliptin and linagliptin data did not fit (R^2 ND).
Assay [2] relates to depression-like behavior. Particulars: obesogenic diet; cited from earlier work.
The test system of assay [3] is T1, pmDPP4Δ23 (headed pmDPP4 in Table 1 and Table S1).
T1 construct: N-terminal 6 x His tag; expressed from pET15b in E. coli BL21-DE3; dimer in solution
The experiment in a line: Colorimetric steady-state kinetics of gpPNA hydrolysis (0.31 to 2.5 mM) without inhibitor, 50 mM Tris-HCl pH 8.3, 37 °C, 380 nm, Lineweaver-Burk analysis. The format is biochemical. Particulars: SD, n = 3; read-out: Km (mM), inhibitor 0 nM. The procedure:
(§1) The hydrolytic activity of the bacterial DPP4 enzyme was measured using Gly-Pro p-nitroanilide hydrochloride (gpPNA) (Sigma), as described for assessing hsDPP4 activity. […] Briefly, 20 µL of each cell-free supernatant was placed in triplicate in a flat 96-well plate. Two hundred microliters of the respective PNA solutions were plated in duplicate to obtain the standard curve. […] The enzymatic activity ([PNA generated (nM) / hydrolysis time (min)] / pmole enzyme) was quantified between 10 and 30 min of incubation time (linear kinetics). Three independent experiments with different purified protein batches were performed. The same protocol was followed for the murine samples (cecal content and plasma from the portal vein). In the case of the cecal content, the values of DPP4 activity were normalized by the amount of protein, quantified by the Bradford method (Bio-Rad, Hercules, CA).
Figure S3. Gliptin inhibition kinetics on pmDPP4Δ23. Lineweaver-Burk double-reciprocal (1/V and 1/S) plots showing pmDPP4Δ23 (bottom panels) and hsDPP4 (top panels) […]
(100 nM, burgundy lines) concentrations. The apparent Km was calculated respectively from inhibitor-associated data points using linear regression to find intersection point at the y-axis (1/S). V, reaction velocity (nmol PNA min-1 pmole enzyme-1); S, substrate concentration (mM gpPNA).
(1 picture or pasted object on this page, not shown here) […]

The test system is the same in assay [4]. Put plainly: Overall Km for gpPNA without inhibitor, from the colorimetric kinetics at pH 8.3 and 37 °C. The format is biochemical. Particulars: read-out: overall estimated Km. The protocol:
as §1

Values joined by “and” are separate entries in the source; they are usually repeats but may differ in a detail not shown here. Equal values may be shown once. “Also recorded” adds a separate entry of the source. Peptide text beside a SMILES is read from it. * marks the point of attachment. pNA = O=[N+]([O-])c1ccc(N*)cc1

pmDPP4Δ23, sequence (A0AA37KD06 entry or part of it, stated change not applied): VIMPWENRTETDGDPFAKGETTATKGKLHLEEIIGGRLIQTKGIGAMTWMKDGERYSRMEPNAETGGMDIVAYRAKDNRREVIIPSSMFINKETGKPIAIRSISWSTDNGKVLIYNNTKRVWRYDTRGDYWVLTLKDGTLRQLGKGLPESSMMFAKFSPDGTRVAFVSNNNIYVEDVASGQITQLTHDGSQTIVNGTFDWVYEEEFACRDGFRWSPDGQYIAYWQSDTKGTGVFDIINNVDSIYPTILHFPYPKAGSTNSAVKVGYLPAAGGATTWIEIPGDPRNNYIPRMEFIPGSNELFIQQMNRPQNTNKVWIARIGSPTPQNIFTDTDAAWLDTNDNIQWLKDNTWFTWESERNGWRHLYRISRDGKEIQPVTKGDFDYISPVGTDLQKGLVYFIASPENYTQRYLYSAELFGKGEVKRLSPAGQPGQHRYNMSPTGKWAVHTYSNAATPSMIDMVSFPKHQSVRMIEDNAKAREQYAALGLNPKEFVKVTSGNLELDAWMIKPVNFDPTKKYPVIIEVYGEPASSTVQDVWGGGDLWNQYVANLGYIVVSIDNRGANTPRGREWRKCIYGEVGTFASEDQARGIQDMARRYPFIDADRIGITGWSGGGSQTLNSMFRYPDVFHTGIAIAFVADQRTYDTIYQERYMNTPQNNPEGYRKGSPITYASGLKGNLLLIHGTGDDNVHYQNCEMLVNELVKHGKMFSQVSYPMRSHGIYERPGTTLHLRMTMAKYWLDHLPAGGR

Turning to `CC#CCn1c(N2CCC[C@@H](N)C2)nc2c1c(=O)n(Cc1nc(C)c3ccccc3n1)c(=O)n2C` [Linagliptin, linagliptin], in assay [1], the “Effect on pmDPP4Δ23 hydrolytic activity (in words)” value was “not inhibited; also recorded: almost null effect; also recorded: minimally inhibited”.
For the compound `N#C[C@@H]1C[C@@H]2C[C@@H]2N1C(=O)[C@@H](N)C12CC3CC(CC(O)(C3)C1)C2` [Saxagliptin, saxagliptin], in assay [1], the “EC50 pmDPP4” value was “nanomolar range”.
As for `N[C@@H](CC(=O)N1CCn2c(nnc2C(F)(F)F)C1)Cc1cc(F)c(F)cc1F` [Sitagliptin, sitagliptin], the “Depression-like behavior associated with increased systemic DPP4 activity” value in assay [2] was “counteracted”. Further, the “Effect on pmDPP4Δ23 hydrolytic activity (in words)” value in assay [1] was “not inhibited; also recorded: almost null effect; also recorded: minimally inhibited”.
As to `N#C[C@@H]1CCCN1C(=O)CNC12CC3CC(CC(O)(C3)C1)C2` [Vildagliptin, vildagliptin], the “EC50 pmDPP4” value in assay [1] is on record as “nanomolar range”.
In the case of `NCC(=O)N1CCC[C@H]1C(=O)Nc1ccc([N+](=O)[O-])cc1` [gpPNA, Gly-Pro p-nitroanilide] (H-Gly-Pro-pNA), the Km (in general, the substrate concentration at which the rate is half of its maximum) in assay [3] is 1.6 mM and 1.79 mM and 1.66 mM and 1.46 mM; in assay [4], 1630 µM.
